Assay results from patent publication US20100267561A1, “HERBICIDAL PYRIDAZINONE DERIVATIVES” (priority 2007, published 2010).
Read-outs that look alike come from different tables or passages of the source.

How the values were obtained:
Test in all cases: Test B pre-/postemergence plant response
Format in all cases: in vivo
[1] = system: common (oilseed) sunflower (Helianthus annuus); details: Helianthus annuus, pre-emergence, Preemergence, read-out: Plant response rating, Sunflower
Source text: (§1) Seeds of plant species selected from blackgrass (Alopecurus myosuroides), downy bromegrass (Bromus tectorum), green foxtail (Setaria viridis), Italian ryegrass (Lolium multiflorum), wheat (Triticum aestivum), wild oat (Avena fatua), catchweed bedstraw (Galium aparine), bermudagrass (Cynodon dactylon), surinam grass (Brachiaria decumbens), cocklebur (Xanthium strumarium), corn (Zea mays), large crabgrass (Digitaria sanguinalis), woolly cupgrass (Eriochloa villosa), giant foxtail (Setaria faberii), goosegrass (Eleusine indica), johnsongrass (Sorghum halepense), kochia (Kochia scoparia), lambsquarters (Chenopodium album), morningglory (Ipomoea coccinea), eastern black (E.B.) nightshade (Solanum ptycanthum), yellow nutsedge (Cyperus esculentus), pigweed (Amaranthus retroflexus), common ragweed (Ambrosia elation), Russian thistle (Salsola iberica), soybean (Glycine max), common (oilseed) sunflower (Helianthus annuus), and velvetleaf (Abutilon theophrasti) were planted and treated preemergence with test chemicals formulated in a non-phytotoxic solvent mixture which included a surfactant.
(§2) At the same time, plants selected from these crop and weed species and also winter barley (Hordeum vulgare), canarygrass (Phalaris minor), chickweed (Stellaria media) and windgrass (Apera spica-venti) were treated with postemergence applications of some of the test chemicals formulated in the same manner. Plants ranged in height from 2 to 18 cm (1- to 4-leaf stage) for postemergence treatments.
(§3) Plant species in the flooded paddy test consisted of rice (Oryza sativa), umbrella sedge (Cyperus difformis), ducksalad (Heteranthera limosa) and barnyardgrass (Echinochloa crus-galli) grown to the 2-leaf stage for testing. At time of treatment, test pots were flooded to 3 cm above the soil surface, treated by application of test compounds directly to the paddy water, and then maintained at that water depth for the duration of the test. Treated plants and controls were maintained in a greenhouse for 13 to 15 days, after which time all species were compared to controls and visually evaluated. Plant response ratings, summarized in Table B, are based on a scale of 0 to 100 where 0 is no effect and 100 is complete control. A dash (-) response means no test result.

[2] = system: pigweed (Amaranthus retroflexus); details: Amaranthus retroflexus, read-out: Plant response rating, Pigweed; for pest or weed control at 62 g/ha: 62 g ai/ha; for pest or weed control at 62 g/ha / pest or weed control at 125 g/ha / pest or weed control at 250 g/ha: scale 0 to 100; for pest or weed control at 125 g/ha: 125 g ai/ha; for pest or weed control at 250 g/ha: 250 g ai/ha
Source text: as §1, §2, §3

[3] = system: bermudagrass (Cynodon dactylon); details: for pest or weed control at 31 g/ha: 31 g ai/ha, 100 complete control; for pest or weed control at 62 g/ha: 62 g ai/ha; for pest or weed control at 125 g/ha: 125 g ai/ha
Source text: as §1, §2, §3

[4] = system: downy bromegrass (Bromus tectorum); details: Bromus tectorum, read-out: Plant response rating, Bromegrass, Downy; for pest or weed control at 31 g/ha: 31 g ai/ha, 100 complete control; for pest or weed control at 62 g/ha: 62 g ai/ha; for pest or weed control at 125 g/ha: 125 g ai/ha; for pest or weed control at 250 g/ha: 250 g ai/ha
Source text: as §1, §2, §3

[5] = system: wheat (Triticum aestivum); details: Triticum aestivum, read-out: Plant response rating, Wheat; for plant injury at 31 g/ha: 31 g ai/ha, 100 complete control; for plant injury at 62 g/ha: 62 g ai/ha; for plant injury at 62 g/ha / plant injury at 125 g/ha / plant injury at 250 g/ha: scale 0 to 100; for plant injury at 125 g/ha: 125 g ai/ha; for plant injury at 250 g/ha: 250 g ai/ha
Source text: as §1, §2, §3

[6] = system: soybean (Glycine max); details: Glycine max, read-out: Plant response rating, Soybean; for plant injury at 31 g/ha: 31 g ai/ha, 100 complete control; for plant injury at 250 g/ha: 250 g ai/ha
Source text: as §1, §2, §3

[7] = system: surinam grass (Brachiaria decumbens); details: Urochloa decumbens, read-out: Plant response rating, Surinam Grass; for pest or weed control at 31 g/ha: 31 g ai/ha, 100 complete control; for pest or weed control at 62 g/ha: 62 g ai/ha; for pest or weed control at 125 g/ha: 125 g ai/ha
Source text: as §1, §2, §3

[8] = Cynodon dactylon, post-emergence, Postemergence, scale 0 to 100, read-out: Plant response rating, Bermudagrass
[9] = Cynodon dactylon, pre-emergence, Preemergence, scale 0 to 100, read-out: Plant response rating, Bermudagrass
[10] = post-emergence, Postemergence, scale 0 to 100, 0 no effect
[11] = post-emergence, Postemergence, scale 0 to 100
[12] = pre-emergence, Preemergence, 0 to 100 scale, 0 no effect
[13] = pre-emergence, Preemergence, scale 0 to 100

Cc1cc(-c2ccc(C(F)(F)F)cc2)nn1-c1c(O)cnn(C)c1=O [Compound 1, 5-hydroxy-2-methyl-4-[5-methyl-3-[4-(trifluoromethyl)phenyl]-1H-pyrazol-1-yl]-3(2H)-pyridazinone]
100: Bermudagrass plant response rating ([3]; 250 g ai/ha, preemergence, 0-100 scale)
30%: pest or weed control at 31 g/ha [4, 10]
60%: pest or weed control at 250 g/ha ([1]; 250 g ai/ha, scale 0 to 100) | pest or weed control at 62 g/ha [4, 11] | plant injury at 250 g/ha [6, 11]
50%: plant injury at 125 g/ha ([6]; post-emergence, Postemergence, 125 g ai/ha, scale 0 to 100)
40%: pest or weed control at 250 g/ha ([2]; post-emergence, Postemergence) | pest or weed control at 31 g/ha [4, 12]
35%: plant injury at 31 g/ha [5, 12]
45%: plant injury at 31 g/ha [5, 10] | plant injury at 62 g/ha ([5]; pre-emergence, Preemergence)
80%: pest or weed control at 62 g/ha [4, 13] | pest or weed control at 125 g/ha [4, 13]
95%: pest or weed control at 125 g/ha [4, 11] | pest or weed control at 250 g/ha ([4]; pre-emergence, Preemergence, scale 0 to 100 (0 no effect, 100 complete control)) | plant injury at 250 g/ha ([5]; post-emergence, Postemergence) | plant injury at 250 g/ha ([5]; pre-emergence, Preemergence)
0%: pest or weed control at 31 g/ha ([1]; 31 g ai/ha, 0 to 100 scale, 0 no effect, 100 complete control) | pest or weed control at 62 g/ha ([1]; 62 g ai/ha, scale 0 to 100) | pest or weed control at 125 g/ha ([1]; 125 g ai/ha, scale 0 to 100) | pest or weed control at 31 g/ha ([2]; post-emergence, Postemergence, 31 g ai/ha, scale 0 to 100, 0 no effect, 100 complete control) | pest or weed control at 62 g/ha ([2]; post-emergence, Postemergence) | pest or weed control at 125 g/ha ([2]; post-emergence, Postemergence) | pest or weed control at 62 g/ha ([2]; pre-emergence, Preemergence) | pest or weed control at 125 g/ha ([2]; pre-emergence, Preemergence) | pest or weed control at 250 g/ha ([2]; pre-emergence, Preemergence) | plant injury at 31 g/ha [6, 10] | plant injury at 31 g/ha [6, 12] | plant injury at 250 g/ha [6, 13]
25%: plant injury at 62 g/ha ([6]; post-emergence, Postemergence, 62 g ai/ha, scale 0 to 100)
90%: plant injury at 62 g/ha ([5]; post-emergence, Postemergence) | plant injury at 125 g/ha ([5]; post-emergence, Postemergence) | plant injury at 125 g/ha ([5]; pre-emergence, Preemergence)
100%: pest or weed control at 31 g/ha ([3]; Cynodon dactylon, post-emergence, Postemergence, scale 0 to 100, 0 no effect, read-out: Plant response rating, Bermudagrass) | pest or weed control at 62 g/ha [3, 8] | pest or weed control at 125 g/ha [3, 8] | pest or weed control at 250 g/ha ([3]; Cynodon dactylon, post-emergence, Postemergence, 250 g ai/ha, scale 0 to 100, read-out: Plant response rating, Bermudagrass) | pest or weed control at 31 g/ha ([3]; Cynodon dactylon, pre-emergence, Preemergence, 0 to 100 scale, 0 no effect, read-out: Plant response rating, Bermudagrass) | pest or weed control at 62 g/ha [3, 9] | pest or weed control at 125 g/ha [3, 9] | pest or weed control at 250 g/ha [4, 11] | pest or weed control at 31 g/ha [7, 10] | pest or weed control at 62 g/ha [7, 11] | pest or weed control at 125 g/ha [7, 11] | pest or weed control at 250 g/ha ([7]; post-emergence, Postemergence, 250 g ai/ha, scale 0 to 100) | pest or weed control at 31 g/ha [7, 12] | pest or weed control at 62 g/ha [7, 13] | pest or weed control at 125 g/ha [7, 13]
